Data from patent US7211579B2, “NK-1 receptor antagonists” (Hoffmann-La Roche Inc., priority 2005, dated 2007).
Converted amounts (≈) assume the structure as drawn.

Legend:
[1] = Metabolic stability in vitro in microsomes; assay type: in vitro ADME; conditions: in comparison with 2-(3,5-bis-trifluoromethyl-phenyl)-N-methyl-N-[6-(4-methyl-piperazin-1-yl)-4-o-tolyl-pyridin-3-yl]-isobutyramide
human NK1 receptors = target: T1, human NK1 receptors (Homo sapiens, UniProt P25103); assay: NK1 receptor binding, [3H]substance P displacement; conditions: human NK1 receptor in CHO cells, [3H]substance P 0.6 nM; read-out: affinity to the NK-1 receptor, given as pKi (converted)
T1 construct: expressed in transfected cells; host or cells: CHO cells infected using the Semliki virus expression system; membrane suspension used
T1 sequence (P25103 whole entry): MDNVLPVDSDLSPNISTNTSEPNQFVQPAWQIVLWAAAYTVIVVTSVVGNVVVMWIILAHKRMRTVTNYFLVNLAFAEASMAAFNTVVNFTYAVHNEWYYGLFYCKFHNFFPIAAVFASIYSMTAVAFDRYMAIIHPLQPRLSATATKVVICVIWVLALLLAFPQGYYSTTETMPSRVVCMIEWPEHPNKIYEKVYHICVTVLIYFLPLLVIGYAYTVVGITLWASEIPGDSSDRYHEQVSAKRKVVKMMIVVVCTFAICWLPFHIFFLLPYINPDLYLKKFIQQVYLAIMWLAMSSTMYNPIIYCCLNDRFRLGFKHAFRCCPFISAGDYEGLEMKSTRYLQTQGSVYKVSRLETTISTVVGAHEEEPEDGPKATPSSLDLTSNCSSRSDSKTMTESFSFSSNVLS
Protocol: The compounds were investigated in accordance with the tests given hereinafter. The affinity of test compounds for the NK1 receptor was evaluated at human NK1 receptors in CHO cells infected with the human NK1 receptor (using the Semliki virus expression system) and radiolabelled with [^3H]substance P (final concentration 0.6 nM). Binding assays were performed in HEPES buffer (50 mM, pH 7.4) containing BSA (0.04%) leupeptin (8 μg/ml), MnCl2 (3 mM) and phosphoramidon (2 μM). Binding assays consisted of 250 μl of membrane suspension (1.25×10^5 cells/assay tube), […] of buffer of displacing agent and 125 μl of [^3H]substance P. Displacement curves were determined with at least seven concentrations of the compound. The assay tubes were incubated for 60 min at room temperature after which time the tube contents were rapidly filtered under vacuum through GF/C filters presoaked for 60 min with PEI (0.3%) with 2×2 ml washes of HEPES buffer (50 mM, pH 7.4). The radioactivity retained on the filters was measured by scintillation counting. All assays were performed in triplicate in at least 2 separate experiments.
The affinity to the NK-1 receptor, given as pKi is described in the table below: […]

Equilibrium solubility = assay type: physicochemical; conditions: for solubility at 24 h: 21 °C, aqueous buffer, thermodynamic from solid
Protocol: Method Description Equilibrium Solubility
[…] A known amount of drug, generally 1–2 mg, was added to 250 μl of buffer (glass tubes), and the resulting suspension was stirred for 2 h (21° C.), after 5 minutes of sonification. The pH of the solution was checked and corrected if necessary (in case of pH correction, the solution was once more shaken and equilibrated), and after 24 h the suspension was filtered through a 0.65-μm filter. The filtered solution was then assayed by HPLC to determine the drug concentration. In cases where the drug had completely dissolved in the buffer, the value for equilibrium solubility was assumed to be higher than the value determined by HPLC and was reported as such. Stock solutions (˜1 mg/ml) in DMSO were used in the preparation of a calibration curve in the related buffer using HPLC analytics.

[2] = PAMPA PSR4p permeability assay; assay type: in vitro ADME; conditions: for Acceptor (sample distribution) / Donor (sample distribution) / Membrane (sample distribution) / PE (permeation constant) / PE class: pH 6.5, DMSO stock solution
Protocol: The permeability has been searched by the PAMPA PSR4p assay, which is based on 96 well microplates. The permeability is measured using a “sandwich” construction. A filterplate is coated with phospholipids (membrane) and placed into a donor plate containing a drug/buffer solution. Finally the filterplate is filled with buffer solution (acceptor). The donor concentration is measured at t-start (reference) and compared with the donor and acceptor concentration after a certain time t-end.
The following setup is used for the PAMPA PSR4p assay: • Donor: 0.05 M MOPSO buffer at ph 6.5+0.5% (w/v) Glyco cholic acid • Membrane: 10% (w/v) Egg lecithin+0.5% (w/v) cholesterol in dodecane • Acceptor: 0.05 MOPSO buffer at pH 6.5
The liquid handling is done with a TECAN RSP150 pipetting robot. The drug analysis is based on UV spectroscopy. All samples are transferred into 96 well UV plates. A SpectralMax 190 UV plate reader is used to collect the UV spectras.
The pipetting steps can be divided into four parts: 1. Dilution of stock solutions and filtration, 2. Preparation of reference and PAMPA PSR4p sandwich, 3. Transfer of acceptor solutions into UV plate, 4. Transfer of donor solutions into UV plate. The PAMPA PSR4p assay contains information about the sample precipitation in the donor buffer UV spectras of the sample, read at the start of the assay (t-start: reference) and at the end (t-end: donor, acceptor) allow the determination of a sample distribution in donor, membrane and acceptor. Because of the known permeation time (t-end, t-start) a permeation constant can be retrieved.

[3] = buffer 0.05 M Phosphate, pH 6.5 (EP 1 035 115) / pH 6.7 (Compound I-2)

metabolic stability in vitro in microsomes [1]	Ki (human NK1 receptors)	solubility at 24 h (Equilibrium solubility; [3])	solubility at 24 h (Equilibrium solubility; buffer 0.15 M Citrate, pH 4.1)	Acceptor (sample distribution) [2]	Donor (sample distribution) [2]	Membrane (sample distribution) [2]	PE (permeation constant) [2]	PE class [2]	solubility, fold higher than the compared compound disclosed in EP 1035 115 (Equilibrium solubility)	permeation speed compared with the corresponding compound of EP 1 035 115 [2]	Compound
higher metabolic stability	1 nM	–	–	–	–	–	–	–	–	–	Cc1ccccc1-c1cc(N2CC[N+](C)([O-])CC2)ncc1N(C)C(=O)C(C)(C)c1cc(C(F)(F)F)cc(C(F)(F)F)c1 [Compound I-1, 2-(3,5-Bis-trifluoromethyl-phenyl)-N-methyl-N-[6-(4-methyl-4-oxy-piperazin-1-yl)-4-o-tolyl-pyridin-3-yl]-isobutyramide]
–	–	1 µg/mL (≈ 1.73 µM)	26 µg/mL (≈ 44.9 µM)	2%	50%	49%	0.56 cm/s × 10^−6	medium	–	–	Cc1ccccc1-c1cc(N2CCN(C)CC2)ncc1N(C)C(=O)C(C)(C)c1cc(C(F)(F)F)cc(C(F)(F)F)c1 [EP 1 035 115, 2-(3,5-bis-trifluoromethyl-phenyl)-N-methyl-N-[6-(4-methyl-piperazin-1-yl)-4-o-tolyl-pyridin-3-yl]-isobutyramide, reference compound]
–	0.794 nM	8 µg/mL (≈ 13.5 µM)	200 µg/mL (≈ 336 µM)	3%	26%	72%	1.81 cm/s × 10^−6	high	8 fold	three times higher	CN1CCN(c2cc(-c3ccccc3CO)c(N(C)C(=O)C(C)(C)c3cc(C(F)(F)F)cc(C(F)(F)F)c3)cn2)CC1 [Compound I-2, 2-(3,5-Bis-trifluoromethyl-phenyl)-N-[4-(2-hydroxymethyl-phenyl)-6-(4-methyl-piperazin-1-yl)-pyridin-3-yl]-N-methyl-isobutyramide]
